Data from PubChem BioAssay (NCI).
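In this assay, cells in 96-well plates receive the compound at five concentrations for 48 hours. Endpoints are linearly interpolated between the surrounding concentrations. Here, GI50 denotes the concentration required for 50% inhibition of growth. TGI: total growth inhibition.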

Experiments:
Assay in all cases: inhibition of tumour cell growth, NCI panel, 48 h
NCI-H226 lung = system: NCI-H226 lung
SW-620 colon = system: SW-620 colon
LOX IMVI melanoma = system: LOX IMVI melanoma
PC-3 prostate = system: PC-3 prostate
HCT-15 colon = system: HCT-15 colon
UO-31 renal = system: UO-31 renal
HOP-92 NSCLC = system: HOP-92 NSCLC
TK-10 renal = system: TK-10 renal

Structure (SMILES) | GI50 (NCI-H226 lung) | TGI (NCI-H226 lung) | GI50 (SW-620 colon) | GI50 (LOX IMVI melanoma) | TGI (LOX IMVI melanoma) | GI50 (PC-3 prostate) | TGI (PC-3 prostate) | GI50 (HCT-15 colon) | TGI (HCT-15 colon) | GI50 (UO-31 renal) | TGI (UO-31 renal) | GI50 (HOP-92 NSCLC) | TGI (HOP-92 NSCLC) | GI50 (TK-10 renal) | TGI (TK-10 renal) | TGI (SW-620 colon)
COc1cc2c3c(n(CCCn4ccnc4)c(=O)c2cc1OC)-c1ccccc1C3=O | 0.05 µM | 0.983 µM | < 0.0206 µM | < 0.0124 µM | 0.0385 µM | 0.169 µM | > 100 µM | 0.159 µM | 2.37 µM | < 0.0141 µM | 0.0551 µM | 0.0343 µM | 3 µM | 0.923 µM | 27.5 µM | –
O=C(c1cccs1)c1c(C(F)(F)F)n([O-])c2cc(C(F)(F)F)ccc2[n+]1=O | 0.647 µM | 1.71 µM | 0.14 µM | 0.0714 µM | 0.17 µM | 0.136 µM | 0.281 µM | 0.175 µM | 0.349 µM | 0.315 µM | 0.656 µM | 0.172 µM | 0.342 µM | 0.678 µM | 1.85 µM | 0.304 µM
C[C@]12CC[C@H]3[C@@H](CC=C4C[C@@H](O)CC[C@@]43C)[C@@H]1C/C(=C\c1cccc(OCCCn3ccnc3)c1)[C@@H]2O | 16.1 µM | 43.4 µM | 10.6 µM | 15.7 µM | 39.6 µM | 9.48 µM | 56.6 µM | 10.2 µM | 38.9 µM | 13 µM | 28.3 µM | 8.4 µM | 25.7 µM | 16.6 µM | 31.3 µM | 26.8 µM
CCSc1nc(=S)[nH]c2[nH]ncc12 | 70.6 µM | > 100 µM | 97.8 µM | 49.3 µM | > 100 µM | > 100 µM | > 100 µM | > 100 µM | > 100 µM | 75.2 µM | > 100 µM | 91.6 µM | > 100 µM | 88.9 µM | > 100 µM | > 100 µM
O=C(Nc1cccc(-c2nc3ccccc3[nH]2)c1)c1cccc(NC(=O)c2ccco2)c1 | 2.72 µM | 15.9 µM | 3.19 µM | 1.93 µM | 3.88 µM | 2.25 µM | 5.48 µM | 3.06 µM | 10.8 µM | 3.24 µM | 11.8 µM | 2.63 µM | 5.89 µM | 2.88 µM | 6.66 µM | 10.8 µM
N#Cc1c(SCc2ccccc2)nc2[nH]c(=S)[nH]c(=S)c2c1-c1ccco1 | 15.1 µM | 52.8 µM | 33.9 µM | > 100 µM | > 100 µM | 0.448 µM | 20.5 µM | 27.6 µM | > 100 µM | 61.2 µM | > 100 µM | 3.45 µM | 26.2 µM | 15.2 µM | 72.1 µM | > 100 µM
Cn1c(Cc2ccccc2)nc2cc3ccccc3cc21 | 22.7 µM | 56.8 µM | 17.2 µM | 24 µM | 64.7 µM | 18.8 µM | 59.6 µM | 26.8 µM | > 100 µM | 25.7 µM | > 100 µM | 10.7 µM | 34.6 µM | 47.9 µM | > 100 µM | 38.3 µM
C[C@]12CC[C@@H]3c4ccc(OCC(=O)O)cc4CC[C@H]3[C@@H]1CCC2=O | – | > 100 µM | – | – | > 100 µM | – | > 100 µM | – | > 100 µM | – | > 100 µM | – | > 100 µM | – | > 100 µM | > 100 µM
O=C1C=CC(=O)N1c1ccc2c(c1)Cc1cc(NC(=O)C(F)(F)F)ccc1-2 | – | 17.6 µM | – | – | 32.7 µM | – | 33.1 µM | – | 26.9 µM | – | 28.4 µM | – | 33.1 µM | – | 7.75 µM | 25.8 µM
C[C@@H](Oc1cc(-c2cnn(C3CC4(CCNCC4)C3)c2)cnc1N)c1c(F)ccc(Cl)c1Cl | 2.51 µM | 17.5 µM | 0.537 µM | 1.22 µM | 2.56 µM | 0.758 µM | 5.79 µM | 1.38 µM | 3.5 µM | 1.89 µM | 4.28 µM | 0.54 µM | 3.13 µM | 1.85 µM | 4.7 µM | 2.33 µM
CN(C)c1ccc2[nH]c(O)c(C=Nc3ccc(S(N)(=O)=O)cc3)c2c1 | > 25 µM | > 25 µM | > 21.9 µM | > 25 µM | > 25 µM | > 25 µM | > 25 µM | > 25 µM | > 25 µM | > 25 µM | > 25 µM | > 25 µM | > 25 µM | > 25 µM | > 25 µM | > 25 µM
CCC(=O)Nc1ccc2c(c1)CN1C(=O)c3ccccc3C1=N2 | > 100 µM | > 100 µM | > 100 µM | > 100 µM | > 100 µM | > 100 µM | > 100 µM | > 100 µM | > 100 µM | > 100 µM | > 100 µM | > 100 µM | > 100 µM | > 100 µM | > 100 µM | > 100 µM
